# Source: patent US4968671A, “Therapeutic agents for ischemic heart diseases” (Yamanouchi Pharmaceutical Co., Ltd., priority 1987, dated 1990)
# Columns and labels:
# mice = test: acute toxicity (LD50), intraperitoneal injection to mice; type: in vivo
# dogs = test: inhibitory action on ventricular extra systole on reperfusion of the occluded coronary artery in anesthetized open-chest dogs; type: in vivo; details: 60 min coronary occlusion then 20 min reperfusion, 300 mg/kg i.v. + 10 mg/kg/min i.v., mean ± standard deviation, P < 0.05 vs control group (35.9 ± 10.2)
# Protocol: The inhibitory action of glutathione monoisopropyl ester on ventricular extra systole occurred when the occluded coronary artery was reperfused in dogs was tested with the following method.
# Measurement was carried out by partially modifying Gibsons' method (J. Cardiovasc. Pharmacol., 5, 517-524, 1983). Dogs (Mongrel, female and male, 9-18 kg) were anesthetized with pentobarbital, the chest was opened under artificial respiration. And then the left coronary artery anterior descending segmental branch was occluded for 60 minutes. Thereafter, a reperfusion was carried out for 20 minutes and then blood pressure and heart rate as well as the heart surface electrocardiogram were measured.
# The glutathione monoisopropyl ester (GE) was intravenously administered in a single dose of 300 mg/kg 30 minutes after the coronary artery occlusion and continuous injection was carried out in the amount of 10 mg/kg/min, i.v., until the completion of this test from 40 minutes after the coronary artery occlusion. The effect of an agent was evaluated by the number of the ventricular extra systole for a minute, which had been occured during the time period of reperfusion.
smiles,measurement,setting,value
"CC(C)OC(=O)CNC(=O)[C@H](CS)NC(=O)CC[C@H](N)C(=O)O [GE, isopropyl r-L-glutamyl-L-cysteinyl glycinate]",acute toxicity (LD50),mice,approximately 5.3 g/kg
same,Number of ventricular extra systole,dogs,10.0 ± 5.6 counts/min
